Values quoted from earlier work as cited in patent US20050266081A1, “Antimicrobial silver hydrogels” (priority 2004, published 2005).

Tested on: skin cell respiration
Details: application of 1 to 10 mg/ml of silver; probable factor in the interference of wound healing

Substance: silver
- inhibition of skin cell respiration: 30%
